Laboratory results published in paper PMC7719179, “Small molecule inhibition of Dynamin-dependent endocytosis targets multiple niche signals and impairs leukemia stem cells” (Nature Communications, 2020).
Values joined by “and” are separate entries in the source; they are usually repeats but may differ in a detail not shown here. Equal values may be shown once.

Legend:
[1] = tested on: ETP12 and ALL8 patient-derived xenografts; assay: Xenograft models of human T-ALL (ETP12, ALL8): leukemic burden in blood, bone marrow, spleen; spleen weight; type: in vivo
Procedure: Patient-derived xenograft models were established as previously described[97],[98]. All experiments were pre-approved by the Human Research Ethics Committee of the University of New South Wales (UNSW), the UNSW Animal Care and Ethics Committee, the Alfred Health Human Ethics Committee and the AMREP Animal Ethics Committee. For transplantation assays, 10^6 splenocytes harvested from successfully engrafted primary human ETP-ALL or T-ALL xenografts were injected into nonobese diabetic/severe combined immunodeficient (NOD.Cg-Prkdc^scid, also termed NOD/SCID) or NOD/SCID/Il2rg^tm1wjl/SzJ (NSG) mice[99]. Moreover, 1.5 × 10^6 cells splenocytes harvested from successfully engrafted patient-derived AML xenografts were injected into nonobese diabetic/severe immunodeficient (NOD.Cg-Rag1^tm1MomIl2rg^tm1wjl/SzJ, also termed NRG) mice expressing human IL-3, human GM-CSF and human SCF from the SGM3 triple transgene (NRGS)[100]. Engraftment into recipients was monitored by FACS analysis of peripheral blood as previously described. […] Both males and females were used. […] Kaplan–Meier survival and statistical analyses were performed using GraphPad Prism. 6.0 software (GraphPad Software, Inc.).
Spleen and sternum from recipients were collected, incubated at least 24 h in 3.7% neutral buffered formalin (pH 7.4), embedded in paraffin and sectioned at 8 μm onto Superforst-Plus slides. Samples were incubated with an anti-human CD45 antibody (Dako, #M0701) in Dako Autostainer Plus solution, then incubated with a sheep anti-mouse IgG conjugated to HRP and processed as per standard protocols using 3,3’ Diaminobenzidine staining (#ab64238, Abcam) for all immunoblots, as previously described. Samples were imaged and annotated using an Aperio ScanScope and software system (Leica Biosystems). […]
(blue circles) and ALL8 (red open circles) 24 hours after the last dose of drugs was administered.
therapy. Median is indicated (bar) with Mean ± SEM indicated for ETP12 and ALL8, 2-way ANOVA
period of administration is indicated in light grey.

[2] = tested on: IL-3R, GM-CSFR and KIT internalization in patient-derived AML cells; assay: Surface expression of IL-3R, GM-CSFR and KIT in patient-derived AML cells; type: cell-based, human; settings: for GM-CSFR FOLD / IL-3R FOLD / KIT FOLD: relative expression vs Unstimulated

With `CCCCCCCCNC(=O)C(C#N)=Cc1cn(CCCN(C)C)c2ccccc12` [Dynole 34-2, 2-Cyano-N-octyl-3-(1-(3-dimethylaminopropyl)-1H-indol-3-yl)-acrylamide] the “Absolute numbers human CD45+ cells” value ([1]; ALL8, BM) was 6540000 and 4120000 and 6090000, the “Proportion of hCD45+ (%) in peripheral blood” value (“Proportion of hCD45+ (%)” below) ([1]; ALL8, Time (weeks) 1) was 1.0% and the “Proportion of hCD45+ (%)” value ([1]; ALL8, Time (weeks) 5) was 2.0%. For the same compound, the “Proportion of hCD45+ (%)” value ([1]; ALL8, Time (weeks) 6) was 64.0%, the “Absolute numbers human CD45+ cells” value ([1]; ETP12, BM) was 4510000 and 5170000 and 3540000 and the “Proportion of hCD45+ (%)” value ([1]; ETP12, Time (weeks) 1) was 0.1% and 0.0% and 0.2%. For the same compound, the “Proportion of hCD45+ (%)” value ([1]; ETP12, Time (weeks) 2) was 0.2% and 0.1% and 0.3% and 0.0%, the “Proportion of hCD45+ (%)” value ([1]; ETP12, Time (weeks) 3) was 2.8% and 0.4% and 7.0% and 8.6% and 4.0% and 0.0% and 0.2% and the “Proportion of hCD45+ (%)” value ([1]; ETP12, Time (weeks) 7) was 35.2%. For the same compound, the “patient-derived leukemic cells in bone marrow and spleen, Dynole 34-2 combined with chemotherapy compared with chemotherapy alone” value ([1]; ETP12 and ALL8 recipients, 24 h after last administration, in words) was “at least tenfold less”, the “leukemic cells in the peripheral blood, bone marrow and spleen, single agent” value ([1]; ETP12 and ALL8 xenografts, result in words) was “significant reduction in leukemic cells” and the Spleen weight ([1]; PDX ALL8) was 0.116 g and 0.076 g and 0.075 g. The Spleen weight ([1]; PDX ETP12) was 0.157 g and 0.109 g and 0.091 g, the “GM-CSFR MFI” value ([2]; AML01-021) was 11447 MFI and the “IL-3R MFI” value ([2]; AML01-021) was 745 MFI. For the same compound, the “KIT MFI” value ([2]; AML01-021) was 1568 MFI, the “GM-CSFR FOLD” value ([2]; AML01-021) was 1.03 and the “IL-3R FOLD” value ([2]; AML01-021) was 1.00. The “KIT FOLD” value ([2]; AML01-021) was 0.89, the “GM-CSFR MFI” value ([2]; AML01-050) was 15894 MFI and the “IL-3R MFI” value ([2]; AML01-050) was 4010 MFI. For the same compound, the “KIT MFI” value ([2]; AML01-050) was 273 MFI, the “GM-CSFR FOLD” value ([2]; AML01-050) was 1.01 and the “IL-3R FOLD” value ([2]; AML01-050) was 1.14. For the same compound, the “KIT FOLD” value ([2]; AML01-050) was 1.25, the “GM-CSFR MFI” value ([2]; AML01-072) was 971 MFI and the “IL-3R MFI” value ([2]; AML01-072) was 7383 MFI. The “KIT MFI” value ([2]; AML01-072) was 1318 MFI, the “GM-CSFR FOLD” value ([2]; AML01-072) was 1.12 and the “IL-3R FOLD” value ([2]; AML01-072) was 1.05. For the same compound, the “KIT FOLD” value ([2]; AML01-072) was 1.74, the “GM-CSFR MFI” value ([2]; AML01-226) was 10157 MFI and the “IL-3R MFI” value ([2]; AML01-226) was 983 MFI. The “KIT MFI” value ([2]; AML01-226) was 612 MFI, the “GM-CSFR FOLD” value ([2]; AML01-226) was 1.05 and the “IL-3R FOLD” value ([2]; AML01-226) was 0.99. The “KIT FOLD” value ([2]; AML01-226) was 0.58, the “GM-CSFR MFI” value ([2]; AML01-307) was 649 MFI and the “IL-3R MFI” value ([2]; AML01-307) was 4023 MFI. The “KIT MFI” value ([2]; AML01-307) was 5991 MFI, the “GM-CSFR FOLD” value ([2]; AML01-307) was 1.01 and the “IL-3R FOLD” value ([2]; AML01-307) was 0.94. For the same compound, the “KIT FOLD” value ([2]; AML01-307) was 0.93, the “GM-CSFR MFI” value ([2]; AML02-078) was 13405 MFI and the “IL-3R MFI” value ([2]; AML02-078) was 4410 MFI. For the same compound, the “KIT MFI” value ([2]; AML02-078) was 1516 MFI, the “GM-CSFR FOLD” value ([2]; AML02-078) was 1.27 and the “IL-3R FOLD” value ([2]; AML02-078) was 1.17. For the same compound, the “KIT FOLD” value ([2]; AML02-078) was 0.91, the “GM-CSFR MFI” value ([2]; AML02-123) was 1180 MFI and the “IL-3R MFI” value ([2]; AML02-123) was 2544 MFI. For the same compound, the “KIT MFI” value ([2]; AML02-123) was 34855 MFI, the “GM-CSFR FOLD” value ([2]; AML02-123) was 1.42 and the “IL-3R FOLD” value ([2]; AML02-123) was 1.10. The “KIT FOLD” value ([2]; AML02-123) was 0.82, the “GM-CSFR MFI” value ([2]; AML02-232) was 16645 MFI and the “IL-3R MFI” value ([2]; AML02-232) was 506 MFI. The “KIT MFI” value ([2]; AML02-232) was 357 MFI, the “GM-CSFR FOLD” value ([2]; AML02-232) was 1.09 and the “IL-3R FOLD” value ([2]; AML02-232) was 1.00. For the same compound, the “KIT FOLD” value ([2]; AML02-232) was 0.82, the “GM-CSFR MFI” value ([2]; AML03-330) was 10769 MFI and the “IL-3R MFI” value ([2]; AML03-330) was 356 MFI. The “KIT MFI” value ([2]; AML03-330) was 372 MFI, the “GM-CSFR FOLD” value ([2]; AML03-330) was 1.12 and the “IL-3R FOLD” value ([2]; AML03-330) was 0.98. For the same compound, the “KIT FOLD” value ([2]; AML03-330) was 0.79, the “GM-CSFR MFI” value ([2]; AML03-331) was 9530 MFI and the “IL-3R MFI” value ([2]; AML03-331) was 798 MFI. The “KIT MFI” value ([2]; AML03-331) was 1709 MFI, the “GM-CSFR FOLD” value ([2]; AML03-331) was 0.88 and the “IL-3R FOLD” value ([2]; AML03-331) was 1.00. The “KIT FOLD” value ([2]; AML03-331) was 0.98, the “GM-CSFR MFI” value ([2]; AML4) was 853 MFI and the “IL-3R MFI” value ([2]; AML4) was 1014 MFI. The “KIT MFI” value ([2]; AML4) was 5020 MFI, the “GM-CSFR FOLD” value ([2]; AML4) was 1.48 and the “IL-3R FOLD” value ([2]; AML4) was 0.99. The “KIT FOLD” value ([2]; AML4) was 0.98, the “GM-CSFR MFI” value ([2]; AML16) was 4656 MFI and the “IL-3R MFI” value ([2]; AML16) was 827 MFI. For the same compound, the “KIT MFI” value ([2]; AML16) was 6207 MFI, the “GM-CSFR FOLD” value ([2]; AML16) was 0.80 and the “IL-3R FOLD” value ([2]; AML16) was 0.78. The “KIT FOLD” value ([2]; AML16) was 0.87, the “GM-CSFR MFI” value ([2]; AML17) was 9268 MFI and the “IL-3R MFI” value ([2]; AML17) was 6591 MFI. The “KIT MFI” value ([2]; AML17) was 21009 MFI, the “GM-CSFR FOLD” value ([2]; AML17) was 1.01 and the “IL-3R FOLD” value ([2]; AML17) was 1.12. The “KIT FOLD” value ([2]; AML17) was 1.17, the “GM-CSFR MFI” value ([2]; AML18) was 13295 MFI and the “IL-3R MFI” value ([2]; AML18) was 2046 MFI. For the same compound, the “KIT MFI” value ([2]; AML18) was 1285 MFI, the “GM-CSFR FOLD” value ([2]; AML18) was 1.08 and the “IL-3R FOLD” value ([2]; AML18) was 1.00. The “KIT FOLD” value ([2]; AML18) was 1.36, the “GM-CSFR MFI” value ([2]; AML34) was 3573 MFI and the “IL-3R MFI” value ([2]; AML34) was 397 MFI. The “KIT MFI” value ([2]; AML34) was 4661 MFI, the “GM-CSFR FOLD” value ([2]; AML34) was 1.00 and the “IL-3R FOLD” value ([2]; AML34) was 0.99. For the same compound, the “KIT FOLD” value ([2]; AML34) was 1.07, the “GM-CSFR MFI” value ([2]; AML54) was 1872 MFI and the “IL-3R MFI” value ([2]; AML54) was 508 MFI. For the same compound, the “KIT MFI” value ([2]; AML54) was 10397 MFI, the “GM-CSFR FOLD” value ([2]; AML54) was 1.08 and the “IL-3R FOLD” value ([2]; AML54) was 0.86. The “KIT FOLD” value ([2]; AML54) was 0.90 and the “internalization of IL-3R and GM-CSFR” value ([2]; patient-derived AML cells stimulated with IL-3 and GM-CSF, result in words) was “prevented the internalization”.
